# Active and inactive are the calls of the source. The rule behind the calls is not given here.
# Columns and labels:
# [1] = Prodrug conversion in human plasma assessed as drug release measured after 24 hrs by HPLC analysis; type: ADME, cell-free
# [2] = Thermodynamic equilibrium solubility in water at 1 to 1200 ug incubated for 4 hrs by absorbance based assay; type: physicochemical; conditions: dose 1-1200 µg, read-out: Therm_solubility
# [3] = Thermodynamic equilibrium solubility SGF at 1 to 1200 ug incubated for 4 hrs by absorbance based assay; type: physicochemical; conditions: dose 1-1200 µg, read-out: Therm_solubility
# [4] = Thermodynamic equilibrium solubility SIF at 1 to 1200 ug incubated for 4 hrs by absorbance based assay; type: physicochemical; conditions: dose 1-1200 µg, read-out: Therm_solubility
# [5] = Volume of distribution in fasted Swiss mouse at 75 mg/kg, po equivalent to Cannabidiol measured for 24 hrs by LCMS/MS analysis; type: ADME, organism-based; conditions: in vivo
# [6] = Volume of distribution at steady state in fasted Wistar rat at 75 mg/kg, po equivalent to Cannabidiol measured for 24 hrs by LCMS/MS analysis; type: ADME, organism-based; conditions: in vivo
# [7] = Chemical stability in SIF at 2 mg/ml incubated for 2 hrs by HPLC analysis; type: physicochemical; conditions: read-out: Stability
# [8] = Chemical stability in water at 2 mg/ml incubated for 2 hrs by HPLC analysis; type: physicochemical; conditions: read-out: Stability
# [9] = Prodrug conversion in human plasma assessed as formation of O-(2-morpholinoacetyl)cannabidiol metabolite measured for 1 hr by HPLC analysis; type: ADME, cell-free
# Mus musculus = assay: Antiepileptic activity in MES Swiss Albino mouse model assessed as decrease in convulsion duration at 75 mg/kg, po equivalent to Cannabidiol pretreated for 30 mins followed by induction of epileptic seizures measured for 1 to 8 hrs; type: functional, organism-based; conditions: time 1.5-8.5 hrs
# [10] = Chemical stability in SGF at 2 mg/ml incubated for 2 hrs by HPLC analysis; type: physicochemical; conditions: read-out: Stability
# [11] = Cmax in fasted Swiss mouse at 75 mg/kg, po measured for 24 hrs by LCMS/MS analysis; type: ADME, organism-based; set-up: dose 75 mg/kg, time 24 hrs, route po; conditions: in vivo
# [12] = AUC (0 to t) in fasted Swiss mouse at 75 mg/kg, po measured for 24 hrs by LCMS/MS analysis; type: ADME, organism-based; set-up: time 24 hrs, dose 75 mg/kg, route po; conditions: in vivo
# [13] = AUC (0 to infinity) in fasted Swiss mouse at 75 mg/kg, po measured for 24 hrs by LCMS/MS analysis; type: ADME, organism-based; set-up: dose 75 mg/kg, time 24 hrs, route po; conditions: in vivo
# [14] = Volume of distribution in fasted Swiss mouse at 75 mg/kg, po measured for 24 hrs by LCMS/MS analysis; type: ADME, organism-based; conditions: in vivo
# [15] = Clearance in fasted Swiss mouse at 75 mg/kg, po measured for 24 hrs by LCMS/MS analysis; type: ADME, organism-based; conditions: in vivo
# [16] = Cmax in fasted Wistar rat at 75 mg/kg, po measured for 24 hrs by LCMS/MS analysis; type: ADME, organism-based; set-up: time 24 hrs, dose 75 mg/kg, route po; conditions: in vivo
# [17] = AUC (0 to t) in fasted Wistar rat at 75 mg/kg, po measured for 24 hrs by LCMS/MS analysis; type: ADME, organism-based; set-up: dose 75 mg/kg, time 24 hrs, route po; conditions: in vivo
# [18] = AUC (0 to infinity) in fasted Wistar rat at 75 mg/kg, po measured for 24 hrs by LCMS/MS analysis; type: ADME, organism-based; set-up: time 24 hrs, dose 75 mg/kg, route po; conditions: in vivo
# [19] = Volume of distribution at steady state in fasted Wistar rat at 75 mg/kg, po measured for 24 hrs by LCMS/MS analysis; type: ADME, organism-based; conditions: in vivo
# [20] = Clearance in fasted Wistar rat at 75 mg/kg, po measured for 24 hrs by LCMS/MS analysis; type: ADME, organism-based; conditions: in vivo
# [21] = Oral bioavailability in Swiss mouse at 5 mg/kg measured for 24 hrs by LCMS/MS analysis; type: ADME, organism-based; conditions: in vivo
# in vivo [22] = conditions: Swiss, mouse, po, 75 mg/kg
# Description: Tmax in fasted Swiss mouse at 75 mg/kg, po measured for 24 hrs by LCMS/MS analysis
# in vivo [23] = conditions: Wistar, rat, po, 75 mg/kg
# Description: Tmax in fasted Wistar rat at 75 mg/kg, po measured for 24 hrs by LCMS/MS analysis
# [24] = Prodrug conversion in human plasma assessed as formation of O-{2-(4-cyclopropylpiperazin-1-yl)acetyl}cannabidiol metabolite measured for 1 to 8 hrs by HPLC analysis; type: ADME, cell-free; conditions: time 1-8 hrs
# [25] = Stability in Balb/C mouse plasma assessed as compound degradation at 10 uM incubated for 2 hrs by LC-MS/MS analysis; type: ADME, cell-free; conditions: read-out: Drug degradation
smiles,measurement,setting,value
C=C(C)[C@@H]1CCC(C)=C[C@H]1c1c(O)cc(CCCCC)cc1OC(=O)CN1CCOCC1,Drug metabolism,[1],84%
same,solubility thermodynamic at 4 h,[2],40 µg/mL
same,solubility thermodynamic at 4 h,[3],400 µg/mL
same,solubility thermodynamic at 4 h,[4],80 µg/mL
same,Vd,[5],108 L/kg
same,Vdss,[6],32 L/kg
O=C(O)CN1CCOCC1,"remaining at 2 h, 2 mg/ml",[7],≥ 74%
same,"remaining at 2 h, 2 mg/ml",[8],≥ 74%
C=C(C)[C@@H]1CCC(C)=C[C@H]1c1c(OC(=O)CN2CCOCC2)cc(CCCCC)cc1OC(=O)CN1CCOCC1,Drug metabolism,[1],52%
same,Drug metabolism,[9],Metabolite_Detected
same,solubility thermodynamic at 4 h,[2],120 µg/mL
same,solubility thermodynamic at 4 h,[3],4000 µg/mL
same,solubility thermodynamic at 4 h,[4],120 µg/mL
same,Vd,[5],224 L/kg
same,Vdss,[6],93 L/kg
same,Activity,Mus musculus,Active
C=C(C)[C@@H]1CCC(C)=C[C@H]1c1c(O)cc(CCCCC)cc1OC(=O)CN1CCCC1,Drug metabolism,[1],74%
C=C(C)[C@@H]1CCC(C)=C[C@H]1c1c(O)cc(CCCCC)cc1O [CANNABIDIOL],solubility thermodynamic at 4 h,[2],< 5 µg/mL
same,solubility thermodynamic at 4 h,[3],< 5 µg/mL
same,solubility thermodynamic at 4 h,[4],< 5 µg/mL
same,"remaining at 2 h, 2 mg/ml",[10],≥ 74%
same,"remaining at 2 h, 2 mg/ml",[7],≥ 74%
same,"remaining at 2 h, 2 mg/ml",[8],≥ 74%
same,Cmax,[11],669 ng/mL
same,AUC(0-t) at 24 h,[12],4660 ng·h/mL
same,AUC(0-inf),[13],4870 ng·h/mL
same,Vd,[14],137 L/kg
same,CL/F,[15],250 mL/min/kg
same,Cmax,[16],728 ng/mL
same,AUC(0-t) at 24 h,[17],9460 ng·h/mL
same,AUC(0-inf),[18],10200 ng·h/mL
same,Vdss,[19],77 L/kg
same,CL/F,[20],123 mL/min/kg
same,bioavailability,[21],24%
same,Tmax at 24 h,in vivo [22],2 h
same,Tmax at 24 h,in vivo [23],8 h
C=C(C)[C@@H]1CCC(C)=C[C@H]1c1c(O)cc(CCCCC)cc1OC(=O)CN1CCN(C2CC2)CC1,Drug metabolism,[1],56%
C=C(C)[C@@H]1CCC(C)=C[C@H]1c1c(O)cc(CCCCC)cc1OC(=O)CN1CCC(c2ccccc2)CC1,Drug metabolism,[1],4.6%
C=C(C)[C@@H]1CCC(C)=C[C@H]1c1c(OC(=O)CN2CCN(C3CC3)CC2)cc(CCCCC)cc1OC(=O)CN1CCN(C2CC2)CC1,Drug metabolism,[1],27%
same,Drug metabolism,[24],Metabolite_Detected
CCOC(=O)[C@H](CCc1ccccc1)N[C@@H](C)C(=O)N1CCC[C@H]1C(=O)O [ENALAPRIL],"metabolised at 2 h, 10 µM",[25],> 80%
C=C(C)[C@@H]1CCC(C)=C[C@H]1c1c(O)cc(CCCCC)cc1OC(=O)CN1CCN(C)CC1,Drug metabolism,[1],59%
C=C(C)[C@@H]1CCC(C)=C[C@H]1c1c(O)cc(CCCCC)cc1OC(=O)CN1CCN(c2ccccc2)CC1,Drug metabolism,[1],9.2%
C=C(C)[C@@H]1CCC(C)=C[C@H]1c1c(O)cc(CCCCC)cc1OC(=O)CN1CCC(O)CC1,Drug metabolism,[1],73%
O=C(/C=C/C=C/c1ccc2c(c1)OCO2)N1CCCCC1 [PIPERINE],solubility thermodynamic at 4 h,[2],40 µg/mL
same,solubility thermodynamic at 4 h,[3],40 µg/mL
same,solubility thermodynamic at 4 h,[4],60 µg/mL
C=C(C)[C@@H]1CCC(C)=C[C@H]1c1c(O)cc(CCCCC)cc1OC(=O)CN1CCN(C(C)C)CC1,Drug metabolism,[1],78%
